Values of other authors in US20230149410A1, “TREATMENT OF CONDITIONS ASSOCIATED WITH THYROID HORMONE” (priority 2020, published 2023).
Where two headings read alike, the source gives them in different places.

Settings: profound hypothyroidism after birth, treated immediately after birth

N[C@@H](Cc1cc(I)c(Oc2cc(I)c(O)c(I)c2)c(I)c1)C(=O)O [levothyroxine]
thyroid status by thyroid hormone testing in plasma or serum (blood): rendered chemically euthyroid | thyroid status by thyroid hormone testing in plasma or serum (blood) (listed as T4): became chemically euthyroid
